# Assay results taken from patent publication EP0093484A2, “Antibacterial monic acid derivatives” (BEECHAM GROUP PLC, priority 1982, dated 1983).
# Experiments:
# [1] = test system: M. suipneumoniae JF 435; experiment: Anti-mycoplasmal activity, MIC in Friis broth agarose; assay type: cell-based; conditions: Mesomycoplasma hyopneumoniae, JF435, 144 h, Friis broth solidified with 0.9% agarose, 6 days incubation at 37°C, read-out: MIC
# [2] = test system: M. suipneumoniae HK(2); experiment: as above; assay type: cell-based; conditions: Mesomycoplasma hyopneumoniae, 144 h, Friis broth solidified with 0.9% agarose, 6 days incubation at 37°C, read-out: MIC
# [3] = test system: M. suipneumoniae Str. 11; experiment: as above; assay type: cell-based; conditions: Mesomycoplasma hyopneumoniae, 144 h, Friis broth solidified with 0.9% agarose, 6 days incubation at 37°C, read-out: MIC
# [4] = test system: M. suipneumoniae MS16; experiment: as above; assay type: cell-based; conditions: Mesomycoplasma hyopneumoniae, 144 h, Friis broth solidified with 0.9% agarose, 6 days incubation at 37°C, read-out: MIC
# [5] = test system: M. suipneumoniae UCD 1; experiment: as above; assay type: cell-based; conditions: Mesomycoplasma hyopneumoniae, UCD1, 144 h, Friis broth solidified with 0.9% agarose, 6 days incubation at 37°C, read-out: MIC
# [6] = test system: M. suipneumoniae TAM 6N; experiment: as above; assay type: cell-based; conditions: Mesomycoplasma hyopneumoniae, TAM6N, 144 h, Friis broth solidified with 0.9% agarose, 6 days incubation at 37°C, read-out: MIC
# [7] = test system: M. hyorhinis ATCC 23234; experiment: as above; assay type: cell-based; conditions: Mesomycoplasma hyorhinis, ATCC23234, 144 h, Friis broth solidified with 0.9% agarose, 6 days incubation at 37°C, read-out: MIC
# [8] = test system: M. hyosynoviae ATCC 25591; experiment: as above; assay type: cell-based; conditions: 144 h, Friis broth solidified with 0.9% agarose, 6 days incubation at 37°C, read-out: MIC
# [9] = test system: M. bovis NCTC 10131; experiment: microbe, parasite or virus in culture; assay type: cell-based; conditions: NCTC10131, 144 h
# [10] = test system: M. dispar NCTC 10125; experiment: Anti-mycoplasmal activity, MIC in Friis broth agarose; assay type: cell-based; conditions: 144 h, Friis broth solidified with 0.9% agarose, 6 days incubation at 37°C, read-out: MIC
# [11] = test system: M. gallisepticum S6; experiment: as above; assay type: cell-based; conditions: Mycoplasmoides gallisepticum, 144 h, Friis broth solidified with 0.9% agarose, 6 days incubation at 37°C, read-out: MIC
# [12] = test system: M. pneumoniae ATCC 15492; experiment: as above; assay type: cell-based; conditions: Mycoplasmoides pneumoniae, ATCC15492, 144 h, Friis broth solidified with 0.9% agarose, 6 days incubation at 37°C, read-out: MIC
# [13] = test system: E. coli ESS; experiment: Human bacteria, MIC by serial dilution in nutrient agar; assay type: cell-based; conditions: Escherichia coli, nutrient agar with 5% chocolated horse blood, 18 hours at 37°C, read-out: MIC
# [14] = test system: P. mirabilis 889; experiment: as above; assay type: cell-based; conditions: Proteus mirabilis, nutrient agar with 5% chocolated horse blood, 18 hours at 37°C, read-out: MIC
# [15] = test system: K. aerogenes A; experiment: as above; assay type: cell-based; conditions: Klebsiella aerogenes, nutrient agar with 5% chocolated horse blood, 18 hours at 37°C, read-out: MIC
# [16] = test system: Ps. aeruginosa 10662; experiment: as above; assay type: cell-based; conditions: Pseudomonas aeruginosa, nutrient agar with 5% chocolated horse blood, 18 hours at 37°C, read-out: MIC
# [17] = test system: Pasteurella multocida 1633; experiment: as above; assay type: cell-based; conditions: nutrient agar with 5% chocolated horse blood, 18 hours at 37°C, read-out: MIC
# [18] = test system: Haemophilus influenzae Q1; experiment: as above; assay type: cell-based; conditions: nutrient agar with 5% chocolated horse blood, 18 hours at 37°C, read-out: MIC
# [19] = test system: Haemophilus influenzae Wy21; experiment: as above; assay type: cell-based; conditions: nutrient agar with 5% chocolated horse blood, 18 hours at 37°C, read-out: MIC
# [20] = test system: Neisseria catarrhalis 1502; experiment: as above; assay type: cell-based; conditions: nutrient agar with 5% chocolated horse blood, 18 hours at 37°C, read-out: MIC
# [21] = test system: Bacillus subtilis 6633; experiment: as above; assay type: cell-based; conditions: nutrient agar with 5% chocolated horse blood, 18 hours at 37°C, read-out: MIC
# [22] = test system: Corynebacterium xerosis 9755; experiment: as above; assay type: cell-based; conditions: nutrient agar with 5% chocolated horse blood, 18 hours at 37°C, read-out: MIC
# [23] = test system: Sarcina lutea 8340; experiment: as above; assay type: cell-based; conditions: Micrococcus luteus, nutrient agar with 5% chocolated horse blood, 18 hours at 37°C, read-out: MIC
# [24] = test system: Staph. aureus Russell; experiment: as above; assay type: cell-based; conditions: Staphylococcus aureus, nutrient agar with 5% chocolated horse blood, 18 hours at 37°C, read-out: MIC
# [25] = test system: Strep. faecalis I; experiment: as above; assay type: cell-based; conditions: Enterococcus faecalis, nutrient agar with 5% chocolated horse blood, 18 hours at 37°C, read-out: MIC
# [26] = test system: Strep. pyogenes R80/421-A; experiment: as above; assay type: cell-based; conditions: Streptococcus pyogenes, nutrient agar with 5% chocolated horse blood, 18 hours at 37°C, read-out: MIC
# [27] = test system: Strep. agalactiae 2788-B; experiment: as above; assay type: cell-based; conditions: Streptococcus agalactiae, nutrient agar with 5% chocolated horse blood, 18 hours at 37°C, read-out: MIC
# [28] = test system: Strep. spp. 64/848-C; experiment: as above; assay type: cell-based; conditions: nutrient agar with 5% chocolated horse blood, 18 hours at 37°C, read-out: MIC
# [29] = test system: Strep. pneumoniae CN33; experiment: as above; assay type: cell-based; conditions: Streptococcus pneumoniae, nutrient agar with 5% chocolated horse blood, 18 hours at 37°C, read-out: MIC
# [30] = test system: E. coli NCTC 10418; experiment: Veterinary bacteria, MIC by two fold serial dilution in agar; conditions: Escherichia coli, NCTC10418, 18 h
# Description: (§1) The activity of the compounds of the Examples against various organisms important in veterinary infections was determined using two fold serial dilutions in Diagnostic Sensitivity Test Agar inoculated with 10^4 organisms.
# [31] = test system: E. coli E1; experiment: as above; conditions: Escherichia coli, E1, 18 h
# Description: as §1
# [32] = test system: S. dublin S7; experiment: as above; conditions: Salmonella enterica, S7, 18 h
# Description: as §1
# [33] = test system: Bord. bronchiseptica B08; experiment: as above; conditions: Bordetella bronchiseptica, B08, 18 h
# Description: as §1
# [34] = test system: Past. multocida PA1; experiment: as above; conditions: Pasteurella multocida, PA1, 18 h
# Description: as §1
# [35] = test system: Past. multocida PA2; experiment: as above; conditions: Pasteurella multocida, PA2, 18 h
# Description: as §1
# [36] = test system: Erysipelothrix rhusiopathiae NCTC 8163; experiment: as above; conditions: Erysipelothrix rhusiopathiae, NCTC8163, 18 h
# Description: as §1
# [37] = test system: Corynebacterium pyogenes CY1; experiment: as above; conditions: CY1, 18 h
# Description: as §1
# [38] = test system: Staph. aureus B4 (pen. resistant); experiment: as above; conditions: Staphylococcus aureus, 18 h
# Description: as §1
# [39] = test system: Staph. aureus 152 (pen. sens.); experiment: as above; conditions: Staphylococcus aureus, 18 h
# Description: as §1
# [40] = test system: Strep. uberis SPU1; experiment: as above; conditions: Streptococcus uberis, SPU1, 18 h
# Description: as §1
# [41] = test system: Strep. dysgalactiae SPD1; experiment: as above; conditions: Streptococcus dysgalactiae, SPD1, 18 h
# Description: as §1
compound,measurement,setting,value
"CC(=CC(=O)OCc1ccc([S+](C)[O-])cc1)CC1OCC(CC2OC2C(C)C(C)O)C(O)C1O (stereo not shown) [Example 2, p- Methylsulphinylbenzyl monate A]",MIC,[1],0.25 µg/mL
same,MIC,[2],0.25 µg/mL
same,MIC,[3],0.25 µg/mL
same,MIC,[4],0.1 µg/mL
same,MIC,[5],0.25 µg/mL
same,MIC,[6],0.5 µg/mL
same,MIC,[7],0.25 µg/mL
same,MIC,[8],0.05 µg/mL
same,MIC,[9],≤ 0.01 µg/mL
same,MIC,[10],0.1 µg/mL
same,MIC,[11],1 µg/mL
same,MIC,[12],1 µg/mL
same,MIC,[13],0.5 µg/mL
same,MIC,[14],50 µg/mL
same,MIC,[15],> 100 µg/mL
same,MIC,[16],> 100 µg/mL
same,MIC,[17],0.5 µg/mL
same,MIC,[18],0.05 µg/mL
same,MIC,[19],0.1 µg/mL
same,MIC,[20],0.5 µg/mL
same,MIC,[21],1 µg/mL
same,MIC,[22],> 100 µg/mL
same,MIC,[23],> 100 µg/mL
same,MIC,[24],2.5 µg/mL
same,MIC,[25],50 µg/mL
same,MIC,[26],0.5 µg/mL
same,MIC,[27],1 µg/mL
same,MIC,[28],1 µg/mL
same,MIC,[29],1 µg/mL
same,MIC,[30],> 80 µg/mL
same,MIC,[31],> 80 µg/mL
same,MIC,[32],> 80 µg/mL
same,MIC,[33],40 µg/mL
same,MIC,[34],0.625 µg/mL
same,MIC,[35],0.625 µg/mL
same,MIC,[36],20 µg/mL
same,MIC,[37],> 80 µg/mL
same,MIC,[38],2.5 µg/mL
same,MIC,[39],1.25 µg/mL
same,MIC,[40],0.156 µg/mL
same,MIC,[41],0.312 µg/mL
"CC(=CC(=O)OCc1ccc(S(C)(=O)=O)cc1)CC1OCC(CC2OC2C(C)C(C)O)C(O)C1O (stereo not shown) [Example 3, p-Methylsulphonylbenzyl monate A]",MIC,[1],0.25 µg/mL
same,MIC,[2],0.25 µg/mL
same,MIC,[3],0.1 µg/mL
same,MIC,[4],0.1 µg/mL
same,MIC,[5],0.25 µg/mL
same,MIC,[6],0.25 µg/mL
same,MIC,[7],0.1 µg/mL
same,MIC,[8],0.025 µg/mL
same,MIC,[9],< 0.01 µg/mL
same,MIC,[10],0.05 µg/mL
same,MIC,[11],0.5 µg/mL
same,MIC,[12],0.25 µg/mL
same,MIC,[13],0.5 µg/mL
same,MIC,[14],50 µg/mL
same,MIC,[15],> 100 µg/mL
same,MIC,[16],> 100 µg/mL
same,MIC,[17],0.25 µg/mL
same,MIC,[18],0.05 µg/mL
same,MIC,[19],0.1 µg/mL
same,MIC,[20],0.25 µg/mL
same,MIC,[21],0.5 µg/mL
same,MIC,[22],> 100 µg/mL
same,MIC,[23],> 100 µg/mL
same,MIC,[24],2.5 µg/mL
same,MIC,[25],50 µg/mL
same,MIC,[26],0.25 µg/mL
same,MIC,[27],0.5 µg/mL
same,MIC,[28],0.5 µg/mL
same,MIC,[29],0.5 µg/mL
same,MIC,[30],80 µg/mL
same,MIC,[31],> 80 µg/mL
same,MIC,[32],> 80 µg/mL
same,MIC,[33],20 µg/mL
same,MIC,[34],0.025 µg/mL
same,MIC,[35],0.156 µg/mL
same,MIC,[36],80 µg/mL
same,MIC,[37],> 80 µg/mL
same,MIC,[38],1.25 µg/mL
same,MIC,[39],1.25 µg/mL
same,MIC,[40],0.312 µg/mL
same,MIC,[41],0.156 µg/mL
